Measurements from paper PMC11643494, “Structure–Activity Relationship Studies in a Series of 2-Aryloxy-N-(pyrimidin-5-yl)acetamide Inhibitors of SLACK Potassium Channels” (Molecules, 2024).

Molecular target: T1, Mouse WT SLACK (Mus musculus, UniProt Q6ZPR4)
T1 construct: expressed in transfected cells; host or cells: CHO-K1
T1 sequence (Q6ZPR4 1-1224): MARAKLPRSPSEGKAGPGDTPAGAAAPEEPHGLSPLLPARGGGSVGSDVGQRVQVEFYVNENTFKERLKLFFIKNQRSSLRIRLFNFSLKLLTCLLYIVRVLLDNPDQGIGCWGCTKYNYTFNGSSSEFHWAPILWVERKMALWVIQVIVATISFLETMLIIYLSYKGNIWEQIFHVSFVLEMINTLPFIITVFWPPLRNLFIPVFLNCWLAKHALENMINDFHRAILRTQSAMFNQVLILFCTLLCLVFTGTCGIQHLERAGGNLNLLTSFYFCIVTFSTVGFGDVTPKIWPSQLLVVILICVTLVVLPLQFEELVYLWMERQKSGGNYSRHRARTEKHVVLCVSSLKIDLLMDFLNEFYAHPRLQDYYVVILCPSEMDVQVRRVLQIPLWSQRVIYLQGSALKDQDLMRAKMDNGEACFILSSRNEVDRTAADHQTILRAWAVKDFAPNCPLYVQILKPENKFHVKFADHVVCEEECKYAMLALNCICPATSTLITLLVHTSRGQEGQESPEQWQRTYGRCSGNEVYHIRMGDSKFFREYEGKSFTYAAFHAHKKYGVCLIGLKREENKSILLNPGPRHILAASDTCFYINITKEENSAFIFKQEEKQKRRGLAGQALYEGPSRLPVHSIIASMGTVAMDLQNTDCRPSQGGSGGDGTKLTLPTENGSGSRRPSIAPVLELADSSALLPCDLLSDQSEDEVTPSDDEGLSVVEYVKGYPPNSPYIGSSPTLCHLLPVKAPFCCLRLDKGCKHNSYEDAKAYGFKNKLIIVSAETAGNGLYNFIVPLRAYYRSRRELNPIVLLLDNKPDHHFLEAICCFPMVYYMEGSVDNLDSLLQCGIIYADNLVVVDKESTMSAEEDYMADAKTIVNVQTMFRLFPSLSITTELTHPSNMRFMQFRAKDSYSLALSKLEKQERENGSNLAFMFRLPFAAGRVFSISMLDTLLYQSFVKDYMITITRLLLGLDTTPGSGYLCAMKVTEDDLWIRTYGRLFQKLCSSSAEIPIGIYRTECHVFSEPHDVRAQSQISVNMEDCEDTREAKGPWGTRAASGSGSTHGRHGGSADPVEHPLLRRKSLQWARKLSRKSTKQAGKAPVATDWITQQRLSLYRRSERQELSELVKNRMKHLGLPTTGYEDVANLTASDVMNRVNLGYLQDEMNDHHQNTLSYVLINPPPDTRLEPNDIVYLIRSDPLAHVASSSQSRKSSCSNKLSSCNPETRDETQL
Assay: Whole-cell APC in CHO-K1 cells stably expressing mouse WT SLACK
Format: cell-based
Conditions: for IC50: APC, CHO-K1 cells; for Imax: maximum inhibition at 30 µM standardized to VU0606170 (set at 100%)
Description: Finally, we chose to screen the same two compounds versus mouse SLACK and two clinically relevant GOF SLACK mutants in APC assays utilizing CHO-K1 cells stably expressing these targets (Table 7). Screening versus the mouse homolog was deemed important for evaluating the potential of the series to ultimately lead to a useful in vivo tool via further optimization.
Automated patch clamp recording was performed with a SyncroPatch 768 PE system (Nanion, Munich, Germany) as previously described. Whole-cell recordings were performed at room temperature. Cells were harvested by first washing with PBS without Mg^2+ or Ca^2+ (Gibco, Billings, MT, USA) to remove cell culture medium, followed by dissociation with TryPLE (Gibco, Billings, MT, USA). Cells were then resuspended and diluted to 200,000 cells/mL in external solution. External solution contained 105 mM NaCl, 4 mM KCl, 1 mM MgCl2, 5 mM CaCl2, 10 mM HEPES, 40 mM N-Methyl-D-glucamine chloride, titrated to pH 7.4 with NaOH and osmolarity of 300 mOsm/kg; internal solution contained 70 mM NaCl, 70 mM KF, 10 mM KCl, 5 mM EGTA, 5mM HEPES, titrated to a pH 7.2 with KOH and osmolarity of 295 mOsm/kg.
The APC protocol was set as following: Cells were held at […] −80 mV for 100 ms, then a ramp protocol was performed from −100 mV to 80 mV at 0.4 mV/ms, hold the cell at −80 mV for another 100 ms, then steps were performed at −20 mV, 0 mV, +20 mV, +40 mV, and +60 mV for 100 ms of each step. Whole-cell currents were measured at 0 mV and normalized to current after external buffer addition.

## CN(c1ccc(C#N)cc1)c1ncc(NC(=O)C(C)(C)Oc2ccc(Cl)cc2)cn1 [Analog 66]
  IC50: 790 nM
  Imax: 91%

## CC(C)(Oc1ccc(Cl)cc1)C(=O)Nc1cnc(Oc2c(F)cccc2F)nc1 [Analog 40]
  IC50: 320 nM
  Imax: 100%
